From patent publication US12428405B2, “Chalcone-based chemotherapeutic compound for triple negative breast cancer” (QATAR UNIVERSITY, priority 2019, dated 2025)
Read-outs that look alike come from different tables or passages of the source.

Assays:
MDA-MB-231 [1] = test: Migration (wound healing) assay; format: cell-based; details: for IC50: 24 hours of treatment, 5 concentrations, two independent experiments, read-out: Migratory IC50 MDA-MB-231; for activity at 5 µM: read-out: % migration
Description: MDA-MB-231 cells were seeded in 12-wells plates at a concentration of 500,000 cells/well and were incubated in complete RPMI culture medium until covering the well and reaching around 90-100% confluency. Following, cells were serum starved for 4 hours and a 200 μl pipette tip was used to create the scratch followed by cell washing with PBS twice. […] Microscopic pictures were then taken, and cell migration was quantified based on the wound diameter at 24 hours minus the initial diameter at time zero, as represented by the following equation: % Migration=[…]

MDA-MB-468 = test: Soft agar colony formation assay; format: cell-based; details: MDA-MB-468; soft agar
MCF-7 = test: Soft agar colony formation assay; format: cell-based; details: MCF-7; soft agar
MDA-MB-231 [2] = test: Soft agar colony formation assay; format: cell-based; details: MDA-MB-231; soft agar
MDA-MB-231 [3] = test: Cell cycle analysis (flow cytometry); format: cell-based; details: 10 μM, 48 hours post treatment; N=1
Description: The MDA-MB-231, MDA-MB-468 and MCF-7 cell lines were seeded on 6-well plates at a concentration of 200,000 cells per well and were maintained in culture supplemented with 10% fetal bovine serum for 8-10 hours. The same day, media was removed and cells were incubated overnight with serum free media. Second day, cells were treated with the compounds. Adherent and floating cell populations were harvested at 48 hours after treatment with different concentrations of the compounds and counted.
Afterward, cells were washed with cold PBS once, centrifuged at 4° C. and fixed with 1.5 ml cold 70% ethanol added drop wise while slowly vortexing. Samples were then stored at […] Following fixation, cells were pelleted and washed with ice-cold PBS. Equal aliquots were collected and resuspended in 300 μl of Tali® Cell Cycle Kit and incubated at 37 C. with slow shaking speed for 30 minutes in the dark. Accuri C6 flow cytometer (BD Biosciences, USA) was used to analyze the cells. The FlowJo V10 software was used to process and evaluate the results.

[4] = test system: Chorioallantoic membrane (CAM) of the chicken embryos; test: Chorioallantoic membrane (CAM) angiogenesis assay; format: in vivo; details: treated at embryonic day 4, read at day 8; 2 μl of 5 mM stock under coverslip
Description: Fertilized white Leghorn chicken embryos (Arab Qatari for Poultry Production, Qatar) were purchased and incubated at 60% humidity at 37° C. in MultiQuip incubator. Ethics approval was obtained from Qatar University-Institutional Bio-safety committee. The embryos were treated in ovo at embryonic day 4 with three of the synthesized chalcones (5, 13 and 14) compared to DMSO treated controls. Briefly, a small cut was made at the top of the shells of the eggs and each treatment was added under a round coverslip at 2 μl of 5 mM stock solutions. Microscopic pictures were taken at embryonic day 8. Embryos treated with compounds 13 and 14 were sacrificed at embryonic day 9 for clinical observations. Quantification of blood vessels was performed manually and the different treatment groups were compared.

[5] = test system: Epithelial Mesenchymal Transition (EMT) markers in MDA-MB-231 cells; test: Western blot of EMT markers; format: cell-based; details: cell line not named in the sentence (FIG. 3.24, FIG. 3.25)
Description: Proteins were quantified with the Pierce BCA Protein Assay Kit (Thermo Scientific, USA) following cell lysis. SDS-PAGE was prepared at a concentration of 10% for all studied proteins. All samples were loaded at 40 μg per 1.5 mm 15 wells comb. Running of stained samples was performed using two steps gel electrophoresis (60 Volts for 20 minutes followed by 120 Volts for 1 hour). Afterwards, gels were transferred into PVDF membrane at 100 Voltage for 1.5-2.0 hours using wet transfer. Following transfer, PVDF membranes were blocked with 5% skimmed milk and washed three times. Primary antibodies (Table 2.2) were prepared, then PVDF membrane were incubated with them overnight with gentle shaking at 4° C. Afterwards, membranes were washed three times and incubated with their respective secondary antibodies for 1-2 hours with gentle shaking at room temperature. Pierce™ ECL Western Blotting Substrate was used to detect proteins by chemiluminescence. Blots were imaged using the ibrightCL1000 imaging system.

[6] = Homo sapiens, MDA-MB-231, 5 μM, 24 hours post treatment, control = 100, Mean ± SEM (N = 2 × 2)

Q: How did the IC50 (MDA-MB-231 [1]) turn out when COc1ccccc1C(=O)/C=C/c1ccc(N(CCCl)CCCl)cc1 [Compound 12, (E)-3-(4-(Bis(2-chloroethyl)amino)phenyl)-1-(2-methoxyphenyl) prop-2-en-1-one] was run?
A: 1990 ± 190 nM

Q: And the IC50 (MDA-MB-231 [1]; Homo sapiens, MDA-MB-231, 24 h)?
A: 2000 ± 188 nM

Q: What about the activity at 5 µM (MDA-MB-231 [1]; [6]) of the same compound?
A: 32.8 ± 0.68%

Q: For CC(=O)O[C@H]1C(=O)[C@@]2(C)[C@H]([C@H](OC(=O)c3ccccc3)[C@]3(O)C[C@H](OC(=O)[C@H](O)[C@@H](NC(=O)c4ccccc4)c4ccccc4)C(C)=C1C3(C)C)[C@]1(OC(C)=O)CO[C@@H]1C[C@@H]2O [Paclitaxel, reference compound], which “colony formation (in words)” value (MDA-MB-468) is on record?
A: significantly inhibited the ability of cells to form colonies

Q: And the “colony formation (in words)” value (MCF-7)?
A: significantly inhibited the ability of cells to form colonies

Q: What about the “colony formation (in words)” value (MDA-MB-231 [2]) of the same compound?
A: significantly inhibited the ability of cells to form colonies

Q: And the activity at 5 µM (MDA-MB-231 [1]; [6])?
A: 39.3 ± 5.16%

Q: And the IC50 (MDA-MB-231 [1]; Homo sapiens, MDA-MB-231)?
A: 2010 ± 220 nM

Q: Which activity at 5 µM (MDA-MB-231 [1]; [6]) does the source give for O=C(/C=C/c1ccc(N2CCCC2)cc1)c1cccc(Cl)c1 [Compound 1, (E)-1-(3-chlorophenyl)-3-(4-(pyrrolidin-1-yl)phenyl) prop-2-en-1-one] here?
A: 74.7 ± 5.8%

Q: How did the activity at 5 µM (MDA-MB-231 [1]; [6]) turn out when COc1cccc(C(=O)/C=C/c2ccc(N3CCCC3)cc2)c1 [Compound 8, (E)-1-(3-methoxyphenyl)-3-(4-(pyrrolidin-1-yl)phenyl) prop-2-en-1-one] was run?
A: 48.7 ± 2.85%

Q: What about the IC50 (MDA-MB-231 [1]; Homo sapiens, MDA-MB-231) of the same compound?
A: 3000 ± 460 nM

Q: For O=C(/C=C/c1ccc(N2CCCC2)cc1)c1ccc2c(c1)OCO2 [Compound 10, (E)-1-(benzo[d][1,3]dioxol-5-yl)-3-(4-(pyrrolidin-1-yl)phenyl)prop-2-en-1-one], which activity at 5 µM (MDA-MB-231 [1]; [6]) is on record?
A: 53.5 ± 5.98%

Q: What about the IC50 (MDA-MB-231 [1]; Homo sapiens, MDA-MB-231) of the same compound?
A: 4800 ± 720 nM

Q: O=C(/C=C/c1ccc(N2CCOCC2)cc1)c1ccc(N2CCNCC2)cc1 [Compound 11, (E)-3-(4-morpholinophenyl)-1-(4-(piperazin-1-yl)phenyl) prop-2-en-1-one] was tested. Which activity at 5 µM (MDA-MB-231 [1]; [6]) did it give?
A: 75.1 ± 0.86%

Q: For CSc1ccc(C(=O)/C=C/c2ccc(N3CCCC3)cc2)cc1 [Compound 7, (E)-1-(4-(methylthio)phenyl)-3-(4-(pyrrolidin-1-yl)phenyl) prop-2-en-1-one], which activity at 5 µM (MDA-MB-231 [1]; [6]) is on record?
A: 71.8 ± 0.06%

Q: With CS(=O)(=O)c1ccc(C(=O)/C=C/c2ccc(N3CCCC3)cc2)cc1 [Compound 2, (E)-1-(4-(methylsulfonyl)phenyl)-3-(4-(pyrrolidin-1-yl)phenyl) prop-2-en-1-one] as the compound, how does the “cell cycle shifts (in words)” value (MDA-MB-231 [3]) read?
A: slight S phase arrest

Q: And the activity at 5 µM (MDA-MB-231 [1]; [6])?
A: 67.3 ± 53.9%

Q: CSc1ccc(C(=O)/C=C/c2ccc(N3CCOCC3)cc2)cc1 [Compound 5, (E)-1-(4-(methylthio)phenyl)-3-(4-morpholinophenyl) prop-2-en-1-one] was tested. Which “inhibition of blood vessels development vs control” value [4] did it give?
A: 68.49±4.42%

Q: What about the “cell cycle shifts (in words)” value (MDA-MB-231 [3]) of the same compound?
A: no major cell cycle shifts

Q: And the activity at 5 µM (MDA-MB-231 [1]; [6])?
A: 64.3 ± 3.32%

Q: What about the IC50 (MDA-MB-231 [1]; Homo sapiens, MDA-MB-231) of the same compound?
A: 6140 ± 620 nM

Q: For CS(=O)(=O)c1ccc(C(=O)/C=C/c2ccc(N3CCCCC3)cc2)cc1 [Compound 4, (E)-1-(4-(methylsulfonyl)phenyl)-3-(4-(piperidin-1-yl)phenyl) prop-2-en-1-one], which activity at 5 µM (MDA-MB-231 [1]; [6]) is on record?
A: 70.7 ± 55.9%

Q: What does the source list for COc1cccc(C(=O)/C=C/c2ccc(N3CCCCC3)cc2)c1 [Compound 9, (E)-1-(3-methoxyphenyl)-3-(4-(piperidin-1-yl)phenyl)prop-2-en-1-one]?
A: cell cycle shifts (in words) (MDA-MB-231 [3]): no major cell cycle shifts; activity at 5 µM (MDA-MB-231 [1]; [6]): 75 ± 0.86%

Q: Which activity at 5 µM (MDA-MB-231 [1]; [6]) does the source give for CS(=O)(=O)c1ccc(C(=O)/C=C/c2ccc(N3CCOCC3)cc2)cc1 [Compound 3, (E)-1-(4-(methylsulfonyl)phenyl)-3-(4-morpholinophenyl) prop-2-en-1-one] here?
A: 65.7 ± 52.4%

Q: CSc1ccc(C(=O)/C=C/c2ccc(N3CCCCC3)cc2)cc1 [Compound 6, (E)-1-(4-(methylthio)phenyl)-3-(4-(piperidin-1-yl)phenyl) prop-2-en-1-one] was tested. Which activity at 5 µM (MDA-MB-231 [1]; [6]) did it give?
A: 69.5 ± 3.92%

Q: What does the source list for COc1cc2c(c(OC)c1OC)-c1ccc(OC)c(=O)cc1[C@@H](NC(C)=O)CC2 [Colchicine, reference compound]?
A: colony formation (in words) (MDA-MB-468): significantly inhibited the ability of cells to form colonies; expression of β-catenin and its phosphorylated form [5]: upregulated phospho-3-catenin; colony formation (in words) (MCF-7): significantly inhibited the ability of cells to form colonies; colony formation (in words) (MDA-MB-231 [2]): significantly inhibited the ability of cells to form colonies; activity at 5 µM (MDA-MB-231 [1]; Homo sapiens, MDA-MB-231, 24 h): 47.45 ± 0.25%
